Laboratory results published in patent US11078170B2 (Assembly Biosciences, Inc., priority 2017, dated 2021).

system: HBV viral production from HepAD38 cells; experiment: Activity of test compounds on viral production from HepAD38 cells (viral load by qPCR of HBV core sequence in supernatant); type: cell-based; settings: Hepatitis B virus, 120 h, 5 days incubation, HBV DNA in supernatant by qPCR, top concentration 10 μM, read-out: Viral Load EC50 Activity range
Method in brief: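 HepAD38 cells, 50,000/well in tetracycline-free 2% FBS medium, treated 5 days at 37° C. with compound from 10 μM top concentration. HBV DNA in supernatant quantified by TaqMan qPCR of core sequence against DNA standards, relative to DMSO wells; CellTiter-Glo viability read in parallel. EC50/CC50 from four-parameter logistic fit.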

Compared with `CN1[C@@H](C(=O)Nc2ccc(F)c(Cl)c2)C[C@@H](c2ncc(-c3ccc(Br)c(F)c3)s2)NS1(=O)=O` [HBV-CSU-173-ISO-II, Cis-5-(5-(4-Bromo-3-fluorophenyl)thiazol-2-yl)-N-(3-chloro-4-fluorophenyl)-2-methyl-1,2,6-thiadiazinane-3-carboxamide 1,1-dioxide], `CN1[C@H](C(=O)Nc2ccc(F)c(Cl)c2)C[C@H](c2ncc(-c3ccc(Br)c(F)c3)s2)NS1(=O)=O` [HBV-CSU-173-ISO-I, Cis-5-(5-(4-Bromo-3-fluorophenyl)thiazol-2-yl)-N-(3-chloro-4-fluorophenyl)-2-methyl-1,2,6-thiadiazinane-3-carboxamide 1,1-dioxide] is lower in EC50: over 5000 nM for the first, under 1000 nM for the second.

First: CN1[C@@H](C(=O)Nc2ccc(F)c(Cl)c2)C[C@@H](c2ccccc2)NS1(=O)=O [HBV-CSU-113-ISO-II, Cis-N-(3-chloro-4-fluorophenyl)-2-methyl-5-phenyl-1,2,6-thiadiazinane-3-carboxamide 1,1-dioxide]
Second: CN1C(C(=O)Nc2ccc(F)c(Cl)c2)CC(c2ccc(Cl)cc2)NS1(=O)=O (stereo not drawn) [HBV-CSU-265, Cis-N-(3-Chloro-4-fluorophenyl)-5-(4-chlorophenyl)-2-methyl-1,2,6-thiadiazinane-3-carboxamide 1,1-dioxide]
The EC50 of the first is higher: over 5000 nM for the first, under 1000 nM for the second.

`[2H]C1C([2H])(c2ccc(Br)s2)NS(=O)(=O)N(C)C1([2H])C(=O)Nc1ccc(F)c(Cl)c1` (stereo not drawn) [HBV-CSU-371, Cis-5-(5-Bromothiophen-2-yl)-N-(3-chloro-4-fluorophenyl)-2-methyl-1,2,6-thiadiazinane-3,4,5-d3-3-carboxamide 1,1-dioxide] and `CN1[C@H](C(=O)Nc2ccc(F)c(Cl)c2)C[C@H](c2ccc(Br)s2)NS1(=O)=O` [HBV-CSU-114-ISO-I, (3S,5R)-5-(5-Bromothiophen-2-yl)-N-(3-chloro-4-fluorophenyl)-2-methyl-1,2,6-thiadiazinane-3-carboxamide 1,1-dioxide] cannot be ordered by EC50: under 1000 nM for the first, under 1000 nM for the second.

First: CN1[C@@H](C(=O)Nc2ccc(F)c(Cl)c2)C[C@@H](c2ccc(-c3nncn3C)s2)NS1(=O)=O [HBV-CSU-324-ISO-II, Cis-N-(3-Chloro-4-fluorophenyl)-2-methyl-5-(5-(4-methyl-4H-1,2,4-triazol-3-yl)thiophen-2-yl)-1,2,6-thiadiazinane-3-carboxamide 1,1-dioxide]
Second: CN1C(C(=O)Nc2ccc(F)c(Cl)c2)CC(c2ccc(-c3ncn(C)n3)s2)NS1(=O)=O (racemic) [HBV-CSU-322, Cis-N-(3-Chloro-4-fluorophenyl)-2-methyl-5-(5-(1-methyl-1H-1,2,4-triazol-3-yl)thiophen-2-yl)-1,2,6-thiadiazinane-3-carboxamide 1,1-dioxide]
The EC50 of the first is higher: 1000 to 5000 nM for the first, under 1000 nM for the second.

Going from `CN1[C@H](C(=O)Nc2ccc(F)c(Cl)c2)C[C@H](c2cc(Cc3ccccc3)cs2)NS1(=O)=O` [HBV-CSU-149-ISO-I, Cis-(4-benzylthiophen-2-yl)-N-(3-chloro-4-fluorophenyl)-2-methyl-1,2,6-thiadiazinane-3-carboxamide 1,1-dioxide] to `CN1[C@@H](C(=O)Nc2ccc(F)c(Cl)c2)C[C@@H](c2cc(Br)cs2)NS1(=O)=O` [HBV-CSU-146-ISO-II, 5-(4-Bromothiophen-2-yl)-N-(3-chloro-4-fluorophenyl)-2-methyl-1,2,6-thiadiazinane-3-carboxamide 1,1-dioxide], the EC50 rises from under 1000 nM to over 5000 nM.

First: CN1[C@H](C(=O)Nc2ccc(F)c(Cl)c2)C[C@H](c2cc(-c3cnn(C(F)(F)F)c3)cs2)NS1(=O)=O [HBV-CSU-325-ISO-I, Cis-N-(3-Chloro-4-fluorophenyl)-2-methyl-5-(4-(1-(trifluoromethyl)-1H-pyrazol-4-yl)thiophen-2-yl)-1,2,6-thiadiazinane-3-carboxamide 1,1-dioxide]
Second: CCn1cc(-c2csc([C@@H]3C[C@H](C(=O)Nc4ccc(F)c(Cl)c4)N(C)S(=O)(=O)N3)c2)cn1 [HBV-CSU-294-ISO-II, Cis-N-(3-chloro-4-fluorophenyl)-5-(4-(1-ethyl-1H-pyrazol-4-yl)thiophen-2-yl)-2-methyl-1,2,6-thiadiazinane-3-carboxamide 1,1-dioxide]
The EC50 of the first is lower: under 1000 nM for the first, 1000 to 5000 nM for the second. The first is the more potent here.

`CN1C(C(=O)Nc2ccc(F)c(Br)c2)CC(c2cccs2)NS1(=O)=O` (racemic) [HBV-CSU-016, Cis-N-(3-Bromo-4-fluorophenyl)-2-methyl-5-(thiophen-2-yl)-1,2,6-thiadiazinane-3-carboxamide 1,1-dioxide] and `CN1[C@H](C(=O)Nc2ccc(F)c(Br)c2)C[C@H](c2ncc(Br)s2)NS1(=O)=O` [HBV-CSU-383, (3S,5R)—N-(3-bromo-4-fluorophenyl)-5-(5-bromothiazol-2-yl)-2-methyl-1,2,6-thiadiazinane-3-carboxamide 1,1-dioxide] cannot be ordered by EC50: under 1000 nM for the first, under 1000 nM for the second.

First: CN1C(C(=O)Nc2ccc(F)c(Cl)c2)CC(c2cc(-c3ccc(C(F)(F)F)nc3)cs2)NS1(=O)=O (racemic) [HBV-CSU-166, Cis-N-(3-chloro-4-fluorophenyl)-2-methyl-5-(4-(6-(trifluoromethyl)pyridin-3-yl)thiophen-2-yl)-1,2,6-thiadiazinane-3-carboxamide 1,1-dioxide]
Second: CN1[C@@H](C(=O)Nc2ccc(F)c(Cl)c2)C[C@@H](c2cc(-c3ccc(F)cn3)cs2)NS1(=O)=O (stereo in doubt) [HBV-CSU-243-ISO-I, Cis-N-(3-chloro-4-fluorophenyl)-5-(4-(5-fluoropyridin-2-yl)thiophen-2-yl)-2-methyl-1,2,6-thiadiazinane-3-carboxamide 1,1-dioxide]
The EC50 of the first is lower: under 1000 nM for the first, over 5000 nM for the second.

`C#CCN1[C@@H](C(=O)Nc2ccc(F)c(Cl)c2)C[C@@H](c2nccs2)NS1(=O)=O` [HBV-CSU-089-ISO-II, Cis-N-(3-chloro-4-fluorophenyl)-2-(prop-2-yn-1-yl)-5-(thiazol-2-yl)-1,2,6-thiadiazinane-3-carboxamide 1,1-dioxide] and `O=C(O)CN1C(C(=O)Nc2ccc(F)c(Cl)c2)CC(c2nccs2)NS1(=O)=O` (stereo not drawn) [HBV-CSU-110, Cis-2-(3-((3-Chloro-4-fluorophenyl)carbamoyl)-1,1-dioxido-5-(thiazol-2-yl)-1,2,6-thiadiazinan-2-yl)acetic acid] cannot be ordered by EC50: over 5000 nM for the first, over 5000 nM for the second.

First: CN1[C@@H](C(=O)Nc2ccc(F)c(Cl)c2)C[C@@H](c2cc(-c3ccn(C)n3)cs2)NS1(=O)=O [HBV-CSU-288-ISO-II, Cis-N-(3-Chloro-4-fluorophenyl)-2-methyl-5-(4-(1-methyl-1H-pyrazol-3-yl)thiophen-2-yl)-1,2,6-thiadiazinane-3-carboxamide 1,1-dioxide]
Second: CN1[C@H](C(=O)Nc2ccc(F)c(Cl)c2)C[C@H](c2cc(-c3ccnn3C)cs2)NS1(=O)=O (relative stereo) [HBV-CSU-289-ISO-I, Cis-N-(3-chloro-4-fluorophenyl)-2-methyl-5-(4-(1-methyl-1H-pyrazol-5-yl)thiophen-2-yl)-1,2,6-thiadiazinane-3-carboxamide 1,1-dioxide]
The EC50 of the first is higher: 1000 to 5000 nM for the first, under 1000 nM for the second.

Going from `CN1[C@H](C(=O)Nc2ccc(F)c(Cl)c2)C[C@H](c2ncc(-c3cncn3C)s2)NS1(=O)=O` [HBV-CSU-277-ISO-I, Cis-N-(3-Chloro-4-fluorophenyl)-2-methyl-5-(5-(1-methyl-1H-imidazol-5-yl)thiazol-2-yl)-1,2,6-thiadiazinane-3-carboxamide 1,1-dioxide] to `CN1[C@@H](C(=O)Nc2ccc(F)c(Cl)c2)C[C@@H](c2ncc(-c3cn(C)cn3)s2)NS1(=O)=O` [HBV-CSU-276-ISO-II, Cis-N-(3-Chloro-4-fluorophenyl)-2-methyl-5-(5-(1-methyl-1H-imidazol-4-yl)thiazol-2-yl)-1,2,6-thiadiazinane-3-carboxamide 1,1-dioxide], the EC50 rises from under 1000 nM to over 5000 nM. The first is the more potent here.

`CN1C(C(=O)Nc2ccc(F)c(Cl)c2)CC(c2ncc(-c3cccs3)s2)NS1(=O)=O` (racemic) [HBV-CSU-178, Cis-N-(3-Chloro-4-fluorophenyl)-2-methyl-5-(5-(thiophen-2-yl)thiazol-2-yl)-1,2,6-thiadiazinane-3-carboxamide 1,1-dioxide] and `CN1[C@H](C(=O)Nc2ccc(F)c(Cl)c2)C[C@H](c2ccc(F)cn2)NS1(=O)=O` [HBV-CSU-032-ISO-I, Cis-N-(3-Chloro-4-fluorophenyl)-5-(5-fluoropyridin-2-yl)-2-methyl-1,2,6-thiadiazinane-3-carboxamide 1,1-dioxide] cannot be ordered by EC50: under 1000 nM for the first, under 1000 nM for the second.

`[2H]C1[C@]([2H])(C(=O)Nc2ccc(F)c(Cl)c2)N(C([2H])([2H])[2H])S(=O)(=O)N[C@]1([2H])c1ccc(-c2cnn(C([2H])([2H])[2H])c2)s1` (stereo in doubt) [HBV-CSU-379-ISO-II, Cis-N-(3-Chloro-4-fluorophenyl)-2-(methyl-d3)-5-(5-(1-(methyl-d3)-1H-pyrazol-4-yl)thiophen-2-yl)-1,2,6-thiadiazinane-3,4,5-d3-3-carboxamide 1,1-dioxide] and `[2H]C([2H])([2H])N1[C@H](C(=O)Nc2ccc(F)c(Cl)c2)C[C@H](c2ccc(-c3cn(C)cn3)s2)NS1(=O)=O` [HBV-CSU-373-ISO-I, Cis-N-(3-Chloro-4-fluorophenyl)-2-(methyl-d3)-5-(5-(1-methyl-1H-imidazol-4-yl)thiophen-2-yl)-1,2,6-thiadiazinane-3-carboxamide 1,1-dioxide] cannot be ordered by EC50: under 1000 nM for the first, under 1000 nM for the second.

First: CN1[C@H](C(=O)Nc2ccc(F)c(Cl)c2)C[C@H](c2ccnn2C)NS1(=O)=O [HBV-CSU-054-ISO-II, Cis-N-(3-Chloro-4-fluorophenyl)-2-methyl-5-(1-methyl-1H-pyrazol-5-yl)-1,2,6-thiadiazinane-3-carboxamide 1,1-dioxide]
Second: CN1C(C(=O)Nc2ccc(F)c(Cl)c2)CC(c2cc(Cl)c(Br)s2)NS1(=O)=O (stereo not drawn) [HBV-CSU-329, Cis-5-(5-bromo-4-chlorothiophen-2-yl)-N-(3-chloro-4-fluorophenyl)-2-methyl-1,2,6-thiadiazinane-3-carboxamide 1,1-dioxide]
The EC50 of the first is higher: 1000 to 5000 nM for the first, under 1000 nM for the second. The second is the more potent here.

`COCCN1C(C(=O)Nc2ccc(F)c(Cl)c2)CC(c2nccs2)NS1(=O)=O` (racemic) [HBV-CSU-058, Cis-N-(3-chloro-4-fluorophenyl)-2-(2-methoxyethyl)-5-(thiazol-2-yl)-1,2,6-thiadiazinane-3-carboxamide 1,1-dioxide] gave an EC50 of under 1000 nM.
